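Tested at 5 concentrations; 48 h exposure; 96-well plates; endpoints linearly interpolated, else capped at highest concentration. GI50: concentration for 50% inhibition of growth. The concentration for full growth arrest is given as TGI.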
Tests used:
Assay in all cases: growth of human tumour cells (NCI), 48 h
[1] = test system: T-47D breast
[2] = test system: NCI-H522 lung
[3] = test system: SN12C renal
[4] = test system: UACC-62 melanoma
[5] = test system: OVCAR-4 ovarian
[6] = test system: HOP-92 NSCLC
[7] = test system: MOLT-4 leukemia
[8] = test system: LOX IMVI melanoma
[9] = test system: HOP-62 NSCLC
[10] = test system: NCI-H226 lung
[11] = test system: HCT-15 colon
[12] = test system: A549 NSCLC
[13] = test system: NCI/ADR-RES ovarian
[14] = test system: SR leukemia
[15] = test system: MCF7 breast
[16] = test system: HCC-2998 colon
[17] = test system: COLO 205 colon
[18] = test system: M14 melanoma
[19] = test system: UO-31 renal
[20] = test system: SNB-19 CNS
[21] = test system: SF-268 CNS
[22] = test system: HT29 colon
[23] = test system: SK-MEL-5 melanoma
[24] = test system: U251 CNS
[25] = test system: SK-OV-3 ovarian
[26] = test system: HL-60(TB) leukemia
[27] = test system: HS 578T breast
[28] = test system: CCRF-CEM leukemia
[29] = test system: SW-620 colon
[30] = test system: MDA-MB-231 breast
[31] = test system: SNB-75 CNS
[32] = test system: NCI-H460 lung
[33] = test system: UACC-257 melanoma
[34] = test system: OVCAR-5 ovarian
[35] = test system: HCT-116 colon
[36] = test system: TK-10 renal
[37] = test system: OVCAR-3 ovarian
[38] = test system: CAKI-1 renal
[39] = test system: KM12 colon
[40] = test system: SF-539 CNS
[41] = test system: RPMI-8226 leukemia
[42] = test system: BT-549 breast
[43] = test system: DU-145 prostate
[44] = test system: OVCAR-8 ovarian
[45] = test system: MALME-3M melanoma
[46] = test system: RXF 393 renal
[47] = test system: ACHN renal
[48] = test system: MDA-MB-435
[49] = test system: IGROV1 ovarian
[50] = test system: 786-0 renal
[51] = test system: SK-MEL-28 melanoma
[52] = test system: SF-295 CNS
[53] = test system: NCI-H23 lung
[54] = test system: K-562 leukemia
[55] = test system: A498 renal

## COc1cc(/C=C/C(=O)Nc2ccc3c(c2)/C(=C\c2cccn2C)C(=O)N3)cc(OC)c1OC
[1]
  GI50: 1590 nM
  TGI: 13.9 µM
[2]
  GI50: 2410 nM
  TGI: 11.7 µM
[3]
  GI50: 3.17 µM
  TGI: 59.8 µM
[4]
  GI50: 3.45 µM
  TGI: 33.7 µM
[5]
  GI50: 4.43 µM
  TGI: > 100 µM
[6]
  GI50: 1540 nM
  TGI: 8.46 µM
[7]
  GI50: 4 µM
  TGI: 82.4 µM
[8]
  GI50: 4.21 µM
  TGI: 20.5 µM
[9]
  GI50: 3.71 µM
  TGI: 32 µM
[10]
  GI50: 8.14 µM
  TGI: 32 µM
[11]
  GI50: 3.83 µM
  TGI: > 100 µM
[12]
  GI50: 4.94 µM
  TGI: > 100 µM
[13]
  GI50: 67.7 µM
  TGI: > 100 µM
[14]
  GI50: 1910 nM
  TGI: 48.9 µM
[15]
  GI50: 1150 nM
  TGI: 6.7 µM
[16]
  GI50: 5.34 µM
  TGI: 20.9 µM
[17]
  GI50: 3.51 µM
  TGI: 14.2 µM
[18]
  GI50: 6.7 µM
  TGI: 45.7 µM
[19]
  GI50: 3.47 µM
  TGI: 33.3 µM
[20]
  GI50: 3.89 µM
  TGI: > 100 µM
[21]
  GI50: 8.19 µM
  TGI: 35.9 µM
[22]
  GI50: 3.45 µM
  TGI: 16.7 µM
[23]
  GI50: 1920 nM
  TGI: 6.68 µM
[24]
  GI50: 3.41 µM
  TGI: 20 µM
[25]
  GI50: 8.35 µM
  TGI: 58.8 µM
[26]
  GI50: 2480 nM
  TGI: 6.45 µM
[27]
  GI50: 3.34 µM
  TGI: > 100 µM
[28]
  GI50: 2470 nM
  TGI: 33.5 µM
[29]
  GI50: 11.4 µM
  TGI: 46.5 µM
[30]
  GI50: 2300 nM
  TGI: 17.8 µM
[31]
  GI50: 2150 nM
  TGI: 18.5 µM
[32]
  GI50: 4.52 µM
  TGI: 76.8 µM
[33]
  GI50: 10.1 µM
  TGI: 31.2 µM
[34]
  GI50: 16.6 µM
  TGI: 35.2 µM
[35]
  GI50: 4.68 µM
  TGI: 29.2 µM
[36]
  GI50: 3.68 µM
  TGI: 18.1 µM
[37]
  GI50: 5.5 µM
  TGI: 22.3 µM
[38]
  GI50: 4.95 µM
  TGI: > 100 µM
[39]
  GI50: 3.2 µM
  TGI: 12.9 µM
[40]
  GI50: 5.15 µM
  TGI: 19.8 µM
[41]
  GI50: 1690 nM
  TGI: 4.04 µM
[42]
  GI50: 6.33 µM
  TGI: 24.9 µM
[43]
  GI50: 7.9 µM
  TGI: > 100 µM
[44]
  GI50: 3.75 µM
  TGI: > 100 µM
[45]
  GI50: 7.34 µM
  TGI: 27 µM
[46]
  GI50: 4.99 µM
  TGI: 19.7 µM
[47]
  GI50: 6.05 µM
  TGI: 53.9 µM
[48]
  GI50: 6.41 µM
  TGI: 31.4 µM
[49]
  GI50: 9.12 µM
  TGI: 70.9 µM
[50]
  GI50: 8.69 µM
  TGI: 98.9 µM
[51]
  GI50: 4.03 µM
  TGI: 17.7 µM
[52]
  GI50: 5.15 µM
  TGI: 22 µM
[53]
  GI50: 5.01 µM
  TGI: 27.2 µM
[54]
  GI50: 3.06 µM
  TGI: > 100 µM
[55]
  GI50: 2650 nM
  TGI: 17.6 µM

— PubChem BioAssay (NCI)
